Laboratory results as given in patent publication US12128035B2, “Activating pyruvate kinase R” (Novo Nordisk Health Care AG, priority 2021, dated 2024).

System: 2,3-DPG blood levels
Assay: Phase 1 SAD/MAD: blood 2,3-DPG (LC-MS/MS) in healthy volunteers
Assay type: in vivo, human
Description: In this study, SAD/MAD cohorts are randomized (3 to 1) to receive Compound 1 or placebo (P). Compound 1 was evaluated first in 4 healthy SAD cohorts and 4 healthy MAD (14-day dosing period) cohorts. Based on the safety, and PK/PD profile from HS, Compound 1 is then evaluated in 1 SCD SAD cohort and 2 SCD MAD cohorts. Specifically, based on the safety and pharmacokinetic/pharmacodynamics (PK/PD) profile in healthy volunteer studies, Compound 1 is evaluated in patients (pts) with SCD, first in a single dose (SD or SAD) cohort and then in multiple-dose (MD or MAD) cohorts (14-day and 12-week). Safety assessments include AEs, vital signs, ECGs and laboratory parameters. PK/PD blood sampling was performed on Day 1 (SAD/MAD) and Day 14 (MAD) and up to 72 h after the last dose and at the end-of-study visit. PD parameters included 2,3-DPG, ATP, and p50 in all cohorts with additional PD studies (including oxygen scan) performed only in the SCD cohorts. PD parameters included 2,3-DPG, ATP, p50, RBC deformability with controlled deoxygenation and reoxygenation (Lorrca® oxygen scan) and varying osmolality (Lorrca® osmoscan)). To maintain study blind, pt identifiers were removed when needed.
In the SAD cohorts, the subjects' blood 2,3-DPG levels were measured periodically after dosing by a qualified LC-MS/MS method for the quantitation of 2,3-DPG in blood. Decreased 2,3-DPG blood levels were observed 6 hours following a single dose of Compound 1 at all dose levels (earlier timepoints were not collected). Maximum decreases in 2,3-DPG levels generally occurred ˜24 hours after the first dose with the reduction sustained ˜48-72 hr postdose. Table 15 reports the median percentage change in 2,3-DPG blood levels, relative to baseline, measured over time in healthy volunteers after a single dose of Compound 1 (200 mg, 400 mg, 700 mg, or 1000 mg) or placebo. Table 16 reports the mean percentage change in 2,3-DPG blood levels, relative to baseline, measured over time in healthy volunteers after a single dose of Compound 1 (200 mg, 400 mg, 700 mg, or 1000 mg). Accordingly, the median and mean reduction in the concentration of 2,3-DPG, relative to baseline, was at least about 30% at all dose levels tested 24 hours after administration of the single dose.
In the MAD cohorts, the subjects' blood 2,3-DPG levels were measured periodically after dosing by a qualified LC-MS/MS method for the quantitation of 2,3-DPG in blood. […] Table 18B reports the mean percentage change in 2,3-DPG blood levels, relative to baseline, measured over time after the first dose on days 1 and 14 in healthy volunteers who received daily doses of Compound 1 (100 mg BID, 200 mg BID, 300 mg BID, or 400 mg QD) for 14 days. Accordingly, the median and mean reduction in the concentration of 2,3-DPG, relative to baseline, was at least about 25% at all dose levels tested 24 hours after administration of the first dose on day 1 and at least about 40% at all dose levels tested 24 hours after administration of the first dose on day 14.
The following procedures are employed for the analysis of ATP and 2,3-DPG in human whole blood K2EDTA using a protein precipitation extraction procedure and analysis by LC-MS/MS.
The following procedures are used for sample extraction prior to analysis via LC-MS/MS. 15.0 μL of the calibration standards, quality controls, matrix blanks, and samples are aliquoted into a 96-well plate. 50.0 μL of the internal standard spiking solution is added to all samples on the plate, with the exception of the matrix blank samples; 50.0 μL of water is added to the matrix blank samples. Subsequently, 150 μL of water is added to all samples on the plate. The plate is then covered and agitated by vortex at high speed for ten minutes, after which 750 μL of methanol is added to all samples on the plate. The plate is covered and agitated by vortex for approximately 1 minute. The plate is then centrifuged at approximately 3500 RPM at approximately 4° C. for five minutes. […]

[1] = HV 400 mg QD, Day 14, 8 h after first daily dose
[2] = HV 400 mg QD, Day 14, 12 h after first daily dose
[3] = HV 400 mg QD, Day 14, 16 h after first daily dose
[4] = HV 400 mg QD, Day 14, 24 h after first daily dose
[5] = HV 400 mg QD, Day 14, 48 h after first daily dose
[6] = HV 400 mg QD, Day 14, 72 h after first daily dose
[7] = HV single 200 mg, 0 h after dose
[8] = HV single 200 mg, 6 h after dose
[9] = HV single 200 mg, 8 h after dose
[10] = HV single 200 mg, 12 h after dose
[11] = HV single 200 mg, 16 h after dose
[12] = HV single 200 mg, 24 h after dose
[13] = HV single 200 mg, 36 h after dose
[14] = HV single 200 mg, 48 h after dose
[15] = HV single 200 mg, 72 h after dose
[16] = HV single 400 mg, 0 h after dose
[17] = HV single 400 mg, 6 h after dose
[18] = HV single 400 mg, 8 h after dose
[19] = HV single 400 mg, 12 h after dose
[20] = HV single 400 mg, 16 h after dose
[21] = HV single 400 mg, 24 h after dose
[22] = HV single 400 mg, 36 h after dose

In the case of `O=C([C@H](CO)c1ccccc1)N1CC2=C(C1)CN(S(=O)(=O)c1cnc3c(c1)OCCO3)C2` (single isomer, unassigned) [Compound 1], the “Mean Percentage Change in 2,3-DPG Levels” value [1] is reported as −55%, the “Median Percentage Change in 2,3-DPG Levels” value (“Median Percentage Change” below) [1] is reported as −56% and the “Mean Percentage Change in 2,3-DPG Levels” value [2] is reported as −50%. For the same compound, the “Median Percentage Change” value [2] was −49%, the “Mean Percentage Change in 2,3-DPG Levels” value [3] was −51% and the “Median Percentage Change” value [3] was −52%. For the same compound, the “Mean Percentage Change in 2,3-DPG Levels” value [4] was −53%, the “Median Percentage Change” value [4] was −53% and the “Mean Percentage Change in 2,3-DPG Levels” value [5] was −38%. The “Median Percentage Change” value [5] was −40%, the “Mean Percentage Change in 2,3-DPG Levels” value [6] was −28% and the “Median Percentage Change” value [6] was −25%. For the same compound, the “maximum decrease in 2,3-DPG from baseline (median)” value (HV MAD cohorts, Day 14) was 55%, the “Mean Maximum Percent Change from Baseline, 2,3-DPG” value (HV MAD, all doses and timepoints (N = 36)) was −56.3% and the “2,3-DPG reduction sustained postdose” value (HV SAD cohorts) was 48 to 72 h. The “Mean Maximum Percent Change from Baseline, 2,3-DPG” value (HV SAD, all doses and timepoints (N = 24)) was −46.8%, the “Mean Percentage Change in 2,3-DPG Levels” value [7] was 0% and the “Median Percentage Change” value [7] was 0.0%. For the same compound, the “Mean Percentage Change in 2,3-DPG Levels” value [8] was −17%, the “Median Percentage Change” value [8] was −18% and the “Mean Percentage Change in 2,3-DPG Levels” value [9] was −21%. For the same compound, the “Median Percentage Change” value [9] was −17%, the “Mean Percentage Change in 2,3-DPG Levels” value [10] was −26% and the “Median Percentage Change” value [10] was −25%. The “Mean Percentage Change in 2,3-DPG Levels” value [11] was −28%, the “Median Percentage Change” value [11] was −33% and the “Mean Percentage Change in 2,3-DPG Levels” value [12] was −30%. For the same compound, the “Median Percentage Change” value [12] was −31%, the “Mean Percentage Change in 2,3-DPG Levels” value [13] was −31% and the “Median Percentage Change” value [13] was −33%. For the same compound, the “Mean Percentage Change in 2,3-DPG Levels” value [14] was −33%, the “Median Percentage Change” value [14] was −29% and the “Mean Percentage Change in 2,3-DPG Levels” value [15] was −14%. For the same compound, the “Median Percentage Change” value [15] was −18%, the “time of pharmacodynamic maximum (minimum of the 2,3-DPG concentration)” value (HV single 400 mg) was ~24 h and the “Mean Percentage Change in 2,3-DPG Levels” value [16] was 0%. For the same compound, the “Median Percentage Change” value [16] was 0.0%, the “Mean Percentage Change in 2,3-DPG Levels” value [17] was −24% and the “Median Percentage Change” value [17] was −23%. For the same compound, the “Mean Percentage Change in 2,3-DPG Levels” value [18] was −29%, the “Median Percentage Change” value [18] was −29% and the “Mean Percentage Change in 2,3-DPG Levels” value [19] was −35%. For the same compound, the “Median Percentage Change” value [19] was −40%, the “Mean Percentage Change in 2,3-DPG Levels” value [20] was −38% and the “Median Percentage Change” value [20] was −35%. The “Mean Percentage Change in 2,3-DPG Levels” value [21] was −41%, the “Median Percentage Change” value [21] was −39% and the “Mean Percentage Change in 2,3-DPG Levels” value [22] was −37%. The “Median Percentage Change” value [22] was −38%.
